Three compounds from ChEMBL document CHEMBL1201862, “PubChem BioAssay data set” (2004) can be followed below.

One assay has as its target Paired box protein Pax-8 (Homo sapiens, UniProt Q06710). Kind of assay: inhibitors of PAX8-driven TPO luciferase reporter, dose response, RMG-I cells, cherry-pick (AID 687027).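 Note: luciferase reporter driven by Pax8 target thyroperoxidase promoter measured by SteadyGlo luminescence.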 In kind it is functional, cell-based.
Assay [1] in a line: IOSE-T80 ovarian epithelial cell cytotoxicity, dose response, cytotoxicity control for PAX8 inhibitor project, plate reader, dry powder samples (AID 743045). In kind it is functional, cell-based.
Assay [2] can be described thus: NIH:OVCAR-3 ovarian cancer cell cytotoxicity, dose response, PAX8 inhibitor project, plate reader, dry powder samples (AID 743044). Format: functional, cell-based.
Assay [3] in a line: non-specific cell cytotoxicity, dose response, cytotoxicity control for PAX8 inhibitor project, plate reader, dry powder samples (AID 743021). Format: functional, cell-based.
A short description of assay [4]: A2780 ovarian cancer cell cytotoxicity, dose response, cytotoxicity control, plate reader, dry powder samples (AID 743046). In kind it is functional, cell-based.
In assay [5] the target is Protein disulfide-isomerase (Homo sapiens, UniProt P07237). Kind of assay: PDI inhibitors, insulin turbidity readout, confirmation, biochemical, dry powder samples, set 2 (AID 652146).
Sequence of Protein disulfide-isomerase (P07237 whole entry): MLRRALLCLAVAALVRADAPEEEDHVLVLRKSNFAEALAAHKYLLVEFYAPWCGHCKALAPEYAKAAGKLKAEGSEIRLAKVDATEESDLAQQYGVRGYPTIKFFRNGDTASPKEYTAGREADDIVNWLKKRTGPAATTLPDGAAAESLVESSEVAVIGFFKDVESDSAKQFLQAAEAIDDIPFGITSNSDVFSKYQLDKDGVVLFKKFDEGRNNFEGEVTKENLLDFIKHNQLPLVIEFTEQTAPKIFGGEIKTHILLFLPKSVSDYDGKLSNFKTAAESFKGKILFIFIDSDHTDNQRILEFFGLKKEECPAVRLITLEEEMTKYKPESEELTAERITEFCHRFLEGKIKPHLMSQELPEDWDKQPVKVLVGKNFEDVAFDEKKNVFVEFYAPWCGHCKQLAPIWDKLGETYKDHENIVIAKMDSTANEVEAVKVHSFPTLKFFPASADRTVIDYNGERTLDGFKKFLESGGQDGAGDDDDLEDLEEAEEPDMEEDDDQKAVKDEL
For assay [6], the target named is T1, Microphthalmia-associated transcription factor (Homo sapiens, UniProt O75030).
T1 sequence (O75030 whole entry): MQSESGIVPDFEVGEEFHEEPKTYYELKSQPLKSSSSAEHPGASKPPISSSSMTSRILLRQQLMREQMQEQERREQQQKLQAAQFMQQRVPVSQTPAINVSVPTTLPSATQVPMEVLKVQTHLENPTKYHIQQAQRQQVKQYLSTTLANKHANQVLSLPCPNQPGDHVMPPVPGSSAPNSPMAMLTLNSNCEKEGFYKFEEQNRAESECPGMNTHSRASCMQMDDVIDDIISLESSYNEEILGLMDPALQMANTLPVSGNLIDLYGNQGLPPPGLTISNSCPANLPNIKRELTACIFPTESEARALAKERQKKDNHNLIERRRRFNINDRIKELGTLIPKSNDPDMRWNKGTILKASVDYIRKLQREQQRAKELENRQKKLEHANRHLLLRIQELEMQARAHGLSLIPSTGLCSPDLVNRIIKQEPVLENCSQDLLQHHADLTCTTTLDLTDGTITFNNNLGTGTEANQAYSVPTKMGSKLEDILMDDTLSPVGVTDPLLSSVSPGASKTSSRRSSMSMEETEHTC
Nature of the assay: TRPM1 promoter luciferase signal decrease, dose response, MITF inhibitor project, cell-based, SK-MEL-5, cherry-picked, set 3 (AID 493073).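 Note: SK-MEL-5 melanoma cells with luciferase driven by the MITF target TRPM1 promoter.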 In kind it is functional.

For a further assay, the system named is Vero. Kind of assay: Vero cell cytotoxicity, cytotoxicity control for flavivirus capping enzyme inhibitors (AID 588742). The note with it: Chlorocebus sabaeus. In kind it is functional.
Assay [7] concerns the target Tyrosyl-DNA phosphodiesterase 2 (Homo sapiens, UniProt O95551). Kind of assay: human TDP2 enzyme inhibitors, dose response, biochemical, epi absorbance, IC50 (AID 743297).
In a further assay the target is Genome polyprotein (dengue virus type 2, UniProt P29990). Nature of the assay: Dengue-2 NS5 methyltransferase inhibitors, primary screen, biochemical, confirmation dose response (AID 588689). Format: functional.
Sequence of Genome polyprotein (P29990 2492-3391 limits assumed): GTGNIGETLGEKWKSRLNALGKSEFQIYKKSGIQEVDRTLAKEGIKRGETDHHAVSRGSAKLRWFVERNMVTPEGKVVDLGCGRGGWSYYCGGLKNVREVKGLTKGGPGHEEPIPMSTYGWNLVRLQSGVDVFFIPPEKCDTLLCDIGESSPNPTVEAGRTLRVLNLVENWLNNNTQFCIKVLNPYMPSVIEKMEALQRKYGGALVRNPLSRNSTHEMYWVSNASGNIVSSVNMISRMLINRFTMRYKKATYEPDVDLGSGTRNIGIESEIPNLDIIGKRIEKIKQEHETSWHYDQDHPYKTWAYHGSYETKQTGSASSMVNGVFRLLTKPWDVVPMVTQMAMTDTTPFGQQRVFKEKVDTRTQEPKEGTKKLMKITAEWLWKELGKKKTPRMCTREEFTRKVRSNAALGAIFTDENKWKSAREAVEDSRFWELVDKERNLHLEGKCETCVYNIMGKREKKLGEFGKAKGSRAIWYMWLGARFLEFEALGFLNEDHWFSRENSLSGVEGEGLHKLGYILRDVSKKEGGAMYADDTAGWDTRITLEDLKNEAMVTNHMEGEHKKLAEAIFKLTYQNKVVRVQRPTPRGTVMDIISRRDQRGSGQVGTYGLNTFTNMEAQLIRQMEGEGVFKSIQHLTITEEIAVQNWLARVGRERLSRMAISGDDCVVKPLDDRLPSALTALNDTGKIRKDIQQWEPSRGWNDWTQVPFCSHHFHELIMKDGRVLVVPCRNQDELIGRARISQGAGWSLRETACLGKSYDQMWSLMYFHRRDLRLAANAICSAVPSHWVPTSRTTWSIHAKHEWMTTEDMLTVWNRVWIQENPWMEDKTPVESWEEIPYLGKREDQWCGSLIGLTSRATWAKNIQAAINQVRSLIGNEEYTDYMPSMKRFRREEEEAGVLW
In the next assay the target is T2, Hexokinase HKDC1 (Homo sapiens, UniProt Q2TB90).
T2 sequence (Q2TB90 whole entry): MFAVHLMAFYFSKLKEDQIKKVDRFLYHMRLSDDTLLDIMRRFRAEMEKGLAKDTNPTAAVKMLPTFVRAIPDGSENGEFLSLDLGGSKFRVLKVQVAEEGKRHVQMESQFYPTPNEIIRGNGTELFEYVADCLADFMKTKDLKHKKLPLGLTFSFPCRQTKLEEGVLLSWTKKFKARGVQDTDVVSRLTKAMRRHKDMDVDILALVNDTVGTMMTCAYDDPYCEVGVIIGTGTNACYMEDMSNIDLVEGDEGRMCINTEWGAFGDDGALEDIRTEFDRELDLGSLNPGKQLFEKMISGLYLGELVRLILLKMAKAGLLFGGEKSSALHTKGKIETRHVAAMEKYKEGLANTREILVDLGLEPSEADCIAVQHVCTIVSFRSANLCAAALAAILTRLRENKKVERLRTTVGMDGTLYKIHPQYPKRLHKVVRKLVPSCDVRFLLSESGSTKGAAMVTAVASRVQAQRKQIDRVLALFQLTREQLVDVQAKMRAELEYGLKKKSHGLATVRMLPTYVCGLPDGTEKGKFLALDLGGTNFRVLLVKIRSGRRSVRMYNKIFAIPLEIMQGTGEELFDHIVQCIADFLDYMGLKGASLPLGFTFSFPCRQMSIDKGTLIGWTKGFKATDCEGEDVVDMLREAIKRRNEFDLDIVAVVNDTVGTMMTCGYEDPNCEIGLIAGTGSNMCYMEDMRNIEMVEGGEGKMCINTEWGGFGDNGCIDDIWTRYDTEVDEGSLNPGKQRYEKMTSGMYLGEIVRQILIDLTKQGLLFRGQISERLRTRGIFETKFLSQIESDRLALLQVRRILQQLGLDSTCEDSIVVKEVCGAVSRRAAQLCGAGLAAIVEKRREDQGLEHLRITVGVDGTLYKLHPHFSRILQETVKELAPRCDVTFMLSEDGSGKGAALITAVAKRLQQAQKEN
Kind of assay: HKDC1 hexokinase inhibitors, dose response, biochemical, W721R variant (AID 504729). In kind it is functional.

In assay [8] the target is T3, Histone-lysine N-methyltransferase NSD2 (Homo sapiens, UniProt O96028).
T3 sequence (O96028 whole entry): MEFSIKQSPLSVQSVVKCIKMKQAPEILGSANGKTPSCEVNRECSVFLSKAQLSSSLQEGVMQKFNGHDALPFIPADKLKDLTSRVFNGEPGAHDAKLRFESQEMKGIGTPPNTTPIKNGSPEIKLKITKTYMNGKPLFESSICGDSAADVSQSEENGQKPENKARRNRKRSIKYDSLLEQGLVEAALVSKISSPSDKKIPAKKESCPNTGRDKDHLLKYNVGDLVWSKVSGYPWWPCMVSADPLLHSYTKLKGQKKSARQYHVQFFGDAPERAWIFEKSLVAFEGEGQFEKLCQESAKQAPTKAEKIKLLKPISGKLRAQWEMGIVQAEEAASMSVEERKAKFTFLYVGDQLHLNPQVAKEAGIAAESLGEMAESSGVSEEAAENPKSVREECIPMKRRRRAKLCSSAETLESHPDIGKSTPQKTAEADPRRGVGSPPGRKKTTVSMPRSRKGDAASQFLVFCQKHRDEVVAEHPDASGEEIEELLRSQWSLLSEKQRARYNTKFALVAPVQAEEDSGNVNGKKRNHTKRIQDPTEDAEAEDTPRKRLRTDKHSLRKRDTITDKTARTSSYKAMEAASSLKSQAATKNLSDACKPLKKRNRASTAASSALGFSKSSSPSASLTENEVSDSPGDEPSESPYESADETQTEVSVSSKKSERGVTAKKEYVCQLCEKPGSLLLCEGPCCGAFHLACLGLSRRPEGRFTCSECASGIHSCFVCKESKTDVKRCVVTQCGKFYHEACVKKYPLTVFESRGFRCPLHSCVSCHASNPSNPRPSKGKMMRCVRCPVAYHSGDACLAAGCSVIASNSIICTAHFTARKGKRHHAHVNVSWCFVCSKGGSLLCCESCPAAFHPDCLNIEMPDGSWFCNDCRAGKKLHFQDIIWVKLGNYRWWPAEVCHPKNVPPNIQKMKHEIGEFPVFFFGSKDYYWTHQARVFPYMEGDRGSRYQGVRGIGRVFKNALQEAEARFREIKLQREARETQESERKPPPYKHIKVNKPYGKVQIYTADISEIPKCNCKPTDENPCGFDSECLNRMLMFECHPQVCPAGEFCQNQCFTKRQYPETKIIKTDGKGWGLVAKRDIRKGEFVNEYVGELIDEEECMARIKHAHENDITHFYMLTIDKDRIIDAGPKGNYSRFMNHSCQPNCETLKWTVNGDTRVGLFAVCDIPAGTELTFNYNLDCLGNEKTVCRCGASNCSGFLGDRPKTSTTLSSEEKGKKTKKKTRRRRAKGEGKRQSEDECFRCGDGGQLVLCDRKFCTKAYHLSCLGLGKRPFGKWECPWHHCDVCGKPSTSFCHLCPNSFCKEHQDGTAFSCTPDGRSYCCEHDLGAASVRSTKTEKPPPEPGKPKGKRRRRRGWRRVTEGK
In kind it is biochemical.

Another assay has as its target T4, Caspase-6 (Homo sapiens, UniProt P55212).
T4 sequence (P55212 whole entry): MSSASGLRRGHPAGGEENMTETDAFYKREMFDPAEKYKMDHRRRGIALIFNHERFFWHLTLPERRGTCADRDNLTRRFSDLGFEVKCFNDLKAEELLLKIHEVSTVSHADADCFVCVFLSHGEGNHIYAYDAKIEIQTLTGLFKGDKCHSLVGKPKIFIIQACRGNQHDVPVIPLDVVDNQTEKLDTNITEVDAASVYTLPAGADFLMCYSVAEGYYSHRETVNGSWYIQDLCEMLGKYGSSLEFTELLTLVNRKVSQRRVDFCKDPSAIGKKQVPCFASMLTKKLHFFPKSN
Kind of assay: human caspase-6 inhibitors, dose response, biochemical, VEID-R110 fluorescence, cherry-pick (AID 720632).

Structures are written as SMILES. The source made the active and inactive calls.

Sequence of Paired box protein Pax-8 (Q06710 whole entry): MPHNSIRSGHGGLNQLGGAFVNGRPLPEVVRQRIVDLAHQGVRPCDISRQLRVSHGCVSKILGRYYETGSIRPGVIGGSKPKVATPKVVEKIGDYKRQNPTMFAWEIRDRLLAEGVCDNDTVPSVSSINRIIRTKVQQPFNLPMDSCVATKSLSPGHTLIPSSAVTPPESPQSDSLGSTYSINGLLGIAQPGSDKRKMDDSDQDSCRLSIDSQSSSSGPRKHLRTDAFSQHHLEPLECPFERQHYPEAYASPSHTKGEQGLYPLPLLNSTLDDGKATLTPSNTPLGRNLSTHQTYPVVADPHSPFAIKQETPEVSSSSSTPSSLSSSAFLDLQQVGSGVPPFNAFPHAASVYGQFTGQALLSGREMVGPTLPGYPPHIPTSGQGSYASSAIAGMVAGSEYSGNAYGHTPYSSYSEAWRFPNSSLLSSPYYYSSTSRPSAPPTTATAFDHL
Sequence of Tyrosyl-DNA phosphodiesterase 2 (O95551 whole entry): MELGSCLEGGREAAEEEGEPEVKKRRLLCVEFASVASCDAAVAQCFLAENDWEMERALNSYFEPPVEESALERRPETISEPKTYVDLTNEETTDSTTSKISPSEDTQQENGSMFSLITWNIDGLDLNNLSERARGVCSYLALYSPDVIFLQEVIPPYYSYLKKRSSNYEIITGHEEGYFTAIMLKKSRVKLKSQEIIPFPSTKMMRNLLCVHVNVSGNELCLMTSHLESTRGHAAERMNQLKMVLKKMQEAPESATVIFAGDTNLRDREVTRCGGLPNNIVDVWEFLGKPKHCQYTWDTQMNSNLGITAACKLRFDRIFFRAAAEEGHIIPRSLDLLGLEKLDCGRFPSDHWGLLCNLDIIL

Usually AC50 stands for the concentration at which the activity in the assay is half-maximal. On to `Cc1ccc(S(=O)(=O)Nc2ccc3c(c2)CC(=O)N([C@@H](C)CO)C[C@H](C)[C@@H](CN(C)Cc2ccc(Oc4ccccc4)cc2)O3)cc1`, for which the concentration at half-maximal activity (AC50) at Paired box protein Pax-8 is 4.67 µM (active); in assay [1], 26.3 µM (active); in [2] it was 19.8 µM (active); in [3] it was 55 µM (active); in [4], 38.6 µM (active).

`CCOC(=O)C1(Cc2cccc(OC)c2)CCN(Cc2ccc(O)c(Cl)c2)CC1`: the AC50 in assay [5] was > 30 µM (inactive).

The CC50 is the concentration giving 50% cytotoxicity. One may read the IC50 as the midpoint of a concentration-inhibition curve. Turning to `Cc1ccc(C)c(-n2c3nc(=O)[nH]c(=O)c-3cc3cc([N+](=O)[O-])ccc32)c1`, the half-maximal activity concentration (AC50) in [6] was 8.42 µM (active); in assay [8], > 20 µM (inactive); at Caspase-6 it was 20.7 µM (active). Moreover, in the assay with Vero, the CC50 is 14.5 µM (active). The IC50 in assay [7] is > 128 µM (inactive); on Genome polyprotein, 14.9 µM (active); at Hexokinase HKDC1, 12.9 µM (active).
